Laboratory results taken from US10562891B2, “Quinazolinones as PARP14 inhibitors” (Ribon Therapeutics Inc., priority 2017, dated 2020).
Where a name gives a salt, the structure may show the parent alone.

Target: catalytic domain of human PARP14 (Homo sapiens (Human), UniProt Q460N5)
Test: Enzymatic assay for inhibition of PARP14 (DELFIA, auto-modification with biotin-NAD)
Type: biochemical
Conditions: auto-modification of PARP14 by biotin-NAD, 50 nM PARP14, 3 μM biotin-NAD
Procedure, shortened: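 His-TEV-tagged PARP14 catalytic domain (50 nM) preincubated with compound 30 min at 25 °C, then auto-modified with 3 μM biotin-NAD for 3 h at 25 °C in HEPES pH 8 buffer with DTT. IC50 from 4-parameter fit, rucaparib and DMSO as controls.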

Chain of catalytic domain of human PARP14 (Q460N5 1611-1801): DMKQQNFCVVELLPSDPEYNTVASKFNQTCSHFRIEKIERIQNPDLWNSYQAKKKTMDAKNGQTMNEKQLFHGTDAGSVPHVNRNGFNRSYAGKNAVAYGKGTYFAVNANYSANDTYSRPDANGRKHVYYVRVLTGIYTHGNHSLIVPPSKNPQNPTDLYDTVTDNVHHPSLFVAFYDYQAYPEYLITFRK

Row | Compound | IC50
1 | NC[C@]1(F)CC[C@H](SCc2nc3cc(NC4CCCC4)cc(F)c3c(=O)[nH]2)CC1 [Example 244, 2-(((cis-4-(Aminomethyl)-4-fluorocyclohexyl)thio)methyl)-7-(cyclopentylamino)-5-fluoroquinazolin-4(3H)-one Trifluoroacetate] | < 1000 nM
2 | CC1(SCc2nc3cc(OCC4CCOCC4)cc(F)c3c(=O)[nH]2)CCOCC1 [Example 358] | < 1000 nM
3 | Cc1cccc2c(=O)[nH]c(CSC3CCN(S(=O)(=O)c4ccccn4)CC3)nc12 [Example 175, 8-Methyl-2-(((1-(pyridin-2-ylsulfonyl)piperidin-4-yl)thio)methyl)quinazolin-4(3H)-one] | 1000 to 10000 nM
4 | O=c1[nH]c(CSC2CCOCC2)nc2cc(OC[C@H]3CCCO3)cc(F)c12 [Example 321a, (R)-5-Fluoro-2-(((tetrahydro-2H-pyran-4-yl)thio)methyl)-7-((tetrahydrofuran-2-yl)methoxy)quinazolin-4(3H)-one] | < 1000 nM
5 | O=c1[nH]c(CSC2CCC(F)(F)CC2)nc2cc(OCC3CCOCC3)cc(F)c12 [Example 366] | < 1000 nM
6 | O=c1[nH]c(CSC2CCNCC2)nc2cc(NC3CCC3)cc(F)c12 [Example 177, 7-(Cyclobutylamino)-5-fluoro-2-((piperidin-4-ylthio)methyl)quinazolin-4(3H)-one Hydrochloride] | < 1000 nM
7 | O=c1[nH]c(CSC2CCNCC2)nc2cc(NC3CCCC3)c(F)cc12 [Example 226, 7-(Cyclopentylamino)-6-fluoro-2-((piperidin-4-ylthio)methyl)quinazolin-4(3H)-one hydrochloride] | < 1000 nM
8 | Cc1ccc(F)c2c(=O)[nH]c(CS[C@H]3CC[C@@H](O)CC3)nc12 [Example 58, 5-Fluoro-2-(((cis-4-hydroxycyclohexyl)thio)methyl)-8-methylquinazolin-4(3H)-one] | < 1000 nM
9 | O=c1[nH]c(CS[C@H]2CCNC[C@H](F)C2)nc2cc(NC3CCCC3)cc(F)c12 (relative stereo) [Example 240, 7-(Cyclopentylamino)-5-fluoro-2-(((trans-6-fluoroazepan-4-yl)thio)methyl)quinazolin-4(3H)-one] | < 1000 nM
10 | O=c1[nH]c(CSC2CCNCC2)nc2cc(NCC3CC3)cc(F)c12 [Example 265, 7-((Cyclopropylmethyl)amino)-5-fluoro-2-((piperidin-4-ylthio)methyl)quinazolin-4(3H)-one] | < 1000 nM
11 | O=c1[nH]c(CSC2CCOCC2)nc2c(F)c(F)ccc12 [Example 45, 7,8-Difluoro-2-(((tetrahydro-2H-pyran-4-yl)thio)methyl)quinazolin-4(3H)-one] | 1000 to 10000 nM
12 | CNC(=O)c1ccc2c(=O)[nH]c(CSC3CCOCC3)nc2c1 [Example 77, N-Methyl-4-oxo-2-(((tetrahydro-2H-pyran-4-yl)thio)methyl)-3,4-dihydro Quinazoline-7-carboxamide] | > 10000 nM
13 | Cc1cc(NC2CCCC2)cc2nc(CSC3CCNCC3)[nH]c(=O)c12 [Example 257, 7-(Cyclopentylamino)-5-methyl-2-((piperidin-4-ylthio)methyl)quinazolin-4(3H)-one hydrochloride] | < 1000 nM
14 | O=c1[nH]c(CSC2CCOCC2)nc2cc(F)ccc12 [Example 30, 7-Fluoro-2-(((tetrahydro-2H-pyran-4-yl)thio)methyl)quinazolin-4(3H)-one] | 1000 to 10000 nM
15 | CS(=O)(=O)N1CC(Nc2ccc3c(=O)[nH]c(CSC4CCOCC4)nc3c2)C1 [Example 195, 7-((1-(methylsulfonyl)azetidin-3-yl)amino)-2-(((tetrahydro-2H-pyran-4-yl)thio)methyl)quinazolin-4(3H)-one] | < 1000 nM
16 | O=c1[nH]c(CSC2CCOCC2)nc2cc(NC3CCCC3)c(F)c(F)c12 [Example 294, 7-(Cyclopentylamino)-5,6-difluoro-2-(((tetrahydro-2H-pyran-4-yl)thio)methyl)quinazolin-4(3H)-one] | < 1000 nM
17 | O=C(CO)N1CCC(SCc2nc3cc(OCC4CCC4)cc(F)c3c(=O)[nH]2)CC1 [Example 307, 7-(Cyclobutylmethoxy)-5-fluoro-2-(((1-(2-hydroxyacetyl)piperidin-4-yl)thio)methyl)quinazolin-4(3H)-one] | < 1000 nM

Further lines, results first:

Row | IC50 | Compound
18 | 1000 to 10000 nM | Cc1cccc2c(=O)[nH]c(CSC3CC(CN)C3)nc12 (centres unmarked) [Example 182, 2-(((3-(aminomethyl)cyclobutyl)thio)methyl)-8-methylquinazolin-4(3H)-one]
19 | < 1000 nM | O=c1[nH]c(CS[C@H]2CC[C@H](O)CC2)nc2cc(OCC3CCOC3)cc(F)c12 (stereo partly drawn) [Example 324, 5-Fluoro-2-((((trans)-4-hydroxycyclohexyl)thio)methyl)-7-((tetrahydrofuran-3-yl)methoxy)quinazolin-4(3H)-one]
20 | < 1000 nM | CC(C)(C)CNc1cc2nc(CSC3CCOCC3)[nH]c(=O)c2c(F)c1F [Example 384]
21 | 1000 to 10000 nM | NC[C@]1(F)CC[C@@H](SCc2nc3cc(OCC4CCC4)cc(F)c3c(=O)[nH]2)CC1 [Example 336]
22 | < 1000 nM | Cc1cccc2c(=O)[nH]c(CSC3CCN(Cc4cc[nH]n4)CC3)nc12 [Example 142, 2-(((1-((1H-Pyrazol-3-yl)methyl)piperidin-4-yl)thio)methyl)-8-methylquinazolin-4(3H)-one trifluoroacetate]
23 | < 1000 nM | O=c1[nH]c(CS[C@H]2CC[C@H](O)CC2)nc2cc(OC[C@H]3CCOC3)cc(F)c12 [Example 325b, 5-Fluoro-2-((((trans)-4-hydroxycyclohexyl)thio)methyl)-7-(((S)-tetrahydrofuran-3-yl)methoxy)quinazolin-4(3H)-one]
24 | < 1000 nM | CN1C[C@H](COc2cc(F)c3c(=O)[nH]c(CSC4CCOCC4)nc3c2)[C@H](F)C1 (relative stereo) [Example 372]
25 | 1000 to 10000 nM | Cc1cccc2c(=O)[nH]c(CS[C@H]3C[C@H](O)C3)nc12 [Example 47, 2-(((trans-3-Hydroxycyclobutyl)thio)methyl)-8-methylquinazolin-4(3H)-one]
26 | < 1000 nM | O=c1[nH]c(CSC2CCOCC2)nc2cc(NC3CCCCC3)c(F)cc12 [Example 290, 7-(Cyclohexylamino)-6-fluoro-2-(((tetrahydro-2H-pyran-4-yl)thio)methyl)quinazolin-4(3H)-one]
27 | > 10000 nM | Cc1cccc2c(=O)[nH]c(C(C)SC3CCOCC3)nc12 (centres unmarked) [Example 7]
28 | > 10000 nM | O=c1[nH]c(CSC2CCOCC2)nc2cnccc12 [Example 37, 2-(((Tetrahydro-2H-pyran-4-yl)thio)methyl)pyrido[3,4-d]pyrimidin-4(3H)-one]
29 | < 1000 nM | Cc1ccc(C(F)(F)F)c2c(=O)[nH]c(CS[C@H]3CC[C@H](O)CC3)nc12 [Example 60, 2-(((trans-4-Hydroxycyclohexyl)thio)methyl)-8-methyl-5-(trifluoromethyl) quinazolin-4(3H)-one]
30 | 1000 to 10000 nM | NC(=O)[C@H]1CC[C@H](SCc2nc3cc(OCC4CCC4)cc(F)c3c(=O)[nH]2)CC1 [Example 311, Trans-4-(((7-(cyclobutylmethoxy)-5-fluoro-4-oxo-3,4-dihydroquinazolin-2-yl)methyl)thio)cyclohexane-1-carboxamide]
31 | > 10000 nM | O=c1[nH]c(CSC2CCOCC2)nc2c(Cc3ccccc3)cccc12 [Example 10]
32 | > 10000 nM | O=c1[nH]c(CSC2CCOCC2)nc2cccnc12 [Example 36, 2-(((Tetrahydro-2H-pyran-4-yl)thio)methyl)pyrido[3,2-d]pyrimidin-4(3H)-one]
